SMILES strings stand for the structures. The source made the active and inactive calls.

Test [1] concerns the target T1, Adenine phosphoribosyltransferase (Homo sapiens, UniProt P07741).
T1 sequence (P07741 whole entry): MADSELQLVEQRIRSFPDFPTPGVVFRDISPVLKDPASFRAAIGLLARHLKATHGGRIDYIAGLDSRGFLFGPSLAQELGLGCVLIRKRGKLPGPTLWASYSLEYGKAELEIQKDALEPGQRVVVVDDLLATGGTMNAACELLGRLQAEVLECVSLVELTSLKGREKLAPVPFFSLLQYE

Test [2] deals with T2, Mitogen-activated protein kinase kinase kinase 5 (Homo sapiens, UniProt Q99683).
T2 sequence (Q99683 whole entry): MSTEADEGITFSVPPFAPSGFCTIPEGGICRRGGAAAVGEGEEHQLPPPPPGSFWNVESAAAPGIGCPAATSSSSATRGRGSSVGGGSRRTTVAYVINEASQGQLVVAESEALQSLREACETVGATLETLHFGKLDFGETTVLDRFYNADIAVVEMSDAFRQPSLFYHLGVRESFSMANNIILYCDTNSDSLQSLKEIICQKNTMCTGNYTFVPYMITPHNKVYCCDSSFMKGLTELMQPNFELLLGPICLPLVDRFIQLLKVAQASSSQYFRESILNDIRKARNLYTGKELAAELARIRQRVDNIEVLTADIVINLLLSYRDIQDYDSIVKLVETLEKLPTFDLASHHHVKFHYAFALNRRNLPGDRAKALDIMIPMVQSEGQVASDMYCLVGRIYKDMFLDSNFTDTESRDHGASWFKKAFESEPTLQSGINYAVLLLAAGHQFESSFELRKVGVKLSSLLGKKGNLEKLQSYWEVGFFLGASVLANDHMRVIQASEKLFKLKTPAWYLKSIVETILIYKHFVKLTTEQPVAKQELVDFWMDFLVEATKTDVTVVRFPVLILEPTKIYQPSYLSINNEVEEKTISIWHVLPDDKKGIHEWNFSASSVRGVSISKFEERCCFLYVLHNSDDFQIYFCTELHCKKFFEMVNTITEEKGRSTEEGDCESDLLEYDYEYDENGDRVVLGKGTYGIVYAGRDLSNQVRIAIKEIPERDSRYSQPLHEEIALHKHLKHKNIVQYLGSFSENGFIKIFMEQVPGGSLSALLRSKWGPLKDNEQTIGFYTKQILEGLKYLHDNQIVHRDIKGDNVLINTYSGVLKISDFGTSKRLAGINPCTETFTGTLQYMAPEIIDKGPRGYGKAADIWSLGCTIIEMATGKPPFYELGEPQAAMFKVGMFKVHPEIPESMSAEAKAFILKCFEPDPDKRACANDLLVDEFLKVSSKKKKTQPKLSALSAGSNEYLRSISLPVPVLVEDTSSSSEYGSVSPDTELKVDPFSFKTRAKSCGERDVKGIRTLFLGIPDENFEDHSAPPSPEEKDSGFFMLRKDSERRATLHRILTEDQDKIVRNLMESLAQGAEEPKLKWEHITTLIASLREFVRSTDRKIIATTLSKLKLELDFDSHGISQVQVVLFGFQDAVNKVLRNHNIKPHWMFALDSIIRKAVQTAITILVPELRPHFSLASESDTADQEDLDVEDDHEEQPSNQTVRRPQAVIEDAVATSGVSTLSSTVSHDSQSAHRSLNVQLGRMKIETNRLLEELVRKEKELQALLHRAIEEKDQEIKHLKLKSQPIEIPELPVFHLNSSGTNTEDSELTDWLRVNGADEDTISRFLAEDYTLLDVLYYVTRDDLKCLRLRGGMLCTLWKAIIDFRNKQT

A further test addresses Myosin-10 (Homo sapiens, UniProt P35580).
For test [3], the target named is T3, RNA cytidine acetyltransferase (Homo sapiens, UniProt Q9H0A0).
T3 sequence (Q9H0A0 whole entry): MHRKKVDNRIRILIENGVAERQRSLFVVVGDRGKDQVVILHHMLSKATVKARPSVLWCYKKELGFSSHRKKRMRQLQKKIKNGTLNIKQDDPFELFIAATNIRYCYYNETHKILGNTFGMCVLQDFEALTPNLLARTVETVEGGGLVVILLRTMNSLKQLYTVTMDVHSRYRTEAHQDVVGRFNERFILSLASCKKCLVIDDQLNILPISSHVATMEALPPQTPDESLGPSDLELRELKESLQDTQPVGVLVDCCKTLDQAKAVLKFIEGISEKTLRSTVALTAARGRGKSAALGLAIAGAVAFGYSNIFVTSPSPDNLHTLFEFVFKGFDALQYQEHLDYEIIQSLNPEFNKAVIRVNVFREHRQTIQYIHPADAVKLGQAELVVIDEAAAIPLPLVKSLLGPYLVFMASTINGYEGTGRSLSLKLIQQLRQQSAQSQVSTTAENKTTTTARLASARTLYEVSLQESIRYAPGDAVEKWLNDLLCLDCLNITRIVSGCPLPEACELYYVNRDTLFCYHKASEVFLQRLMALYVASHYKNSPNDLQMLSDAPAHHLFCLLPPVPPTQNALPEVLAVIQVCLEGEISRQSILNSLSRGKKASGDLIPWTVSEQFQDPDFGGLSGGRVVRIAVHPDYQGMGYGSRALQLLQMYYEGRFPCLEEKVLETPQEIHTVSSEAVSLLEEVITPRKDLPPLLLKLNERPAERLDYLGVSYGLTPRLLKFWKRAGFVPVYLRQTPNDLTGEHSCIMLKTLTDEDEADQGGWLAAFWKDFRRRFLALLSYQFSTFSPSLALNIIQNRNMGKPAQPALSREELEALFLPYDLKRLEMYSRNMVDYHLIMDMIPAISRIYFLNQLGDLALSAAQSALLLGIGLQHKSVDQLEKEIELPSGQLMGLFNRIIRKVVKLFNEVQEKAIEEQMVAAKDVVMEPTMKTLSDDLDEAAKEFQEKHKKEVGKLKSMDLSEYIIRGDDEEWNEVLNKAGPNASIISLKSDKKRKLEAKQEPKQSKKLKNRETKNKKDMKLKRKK

Test [4] addresses 5'-AMP-activated protein kinase catalytic subunit alpha-1 (Homo sapiens, UniProt Q13131).
The target of test [5] is cAMP-dependent protein kinase catalytic subunit beta (Homo sapiens, UniProt P22694).
In test [6] the target is Receptor-interacting serine/threonine-protein kinase 3 (Homo sapiens, UniProt Q9Y572).
Receptor-interacting serine/threonine-protein kinase 3, sequence (Q9Y572 whole entry): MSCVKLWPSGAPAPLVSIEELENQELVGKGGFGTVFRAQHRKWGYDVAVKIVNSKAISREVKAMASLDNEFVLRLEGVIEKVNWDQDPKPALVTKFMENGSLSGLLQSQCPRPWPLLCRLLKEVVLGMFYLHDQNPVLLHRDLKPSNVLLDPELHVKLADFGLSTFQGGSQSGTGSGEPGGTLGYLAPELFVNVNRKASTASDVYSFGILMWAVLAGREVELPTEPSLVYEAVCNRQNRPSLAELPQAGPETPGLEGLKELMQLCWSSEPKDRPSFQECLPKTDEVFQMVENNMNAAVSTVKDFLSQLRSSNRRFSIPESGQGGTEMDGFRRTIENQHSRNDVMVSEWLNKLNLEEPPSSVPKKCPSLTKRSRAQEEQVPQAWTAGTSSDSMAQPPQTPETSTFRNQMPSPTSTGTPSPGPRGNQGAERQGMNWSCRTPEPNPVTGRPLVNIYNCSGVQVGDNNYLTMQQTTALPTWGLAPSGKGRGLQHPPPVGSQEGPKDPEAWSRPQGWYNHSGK
Further: in the data inactive means no Kd found up to 30 µM.

Myosin-10, sequence (P35580 whole entry): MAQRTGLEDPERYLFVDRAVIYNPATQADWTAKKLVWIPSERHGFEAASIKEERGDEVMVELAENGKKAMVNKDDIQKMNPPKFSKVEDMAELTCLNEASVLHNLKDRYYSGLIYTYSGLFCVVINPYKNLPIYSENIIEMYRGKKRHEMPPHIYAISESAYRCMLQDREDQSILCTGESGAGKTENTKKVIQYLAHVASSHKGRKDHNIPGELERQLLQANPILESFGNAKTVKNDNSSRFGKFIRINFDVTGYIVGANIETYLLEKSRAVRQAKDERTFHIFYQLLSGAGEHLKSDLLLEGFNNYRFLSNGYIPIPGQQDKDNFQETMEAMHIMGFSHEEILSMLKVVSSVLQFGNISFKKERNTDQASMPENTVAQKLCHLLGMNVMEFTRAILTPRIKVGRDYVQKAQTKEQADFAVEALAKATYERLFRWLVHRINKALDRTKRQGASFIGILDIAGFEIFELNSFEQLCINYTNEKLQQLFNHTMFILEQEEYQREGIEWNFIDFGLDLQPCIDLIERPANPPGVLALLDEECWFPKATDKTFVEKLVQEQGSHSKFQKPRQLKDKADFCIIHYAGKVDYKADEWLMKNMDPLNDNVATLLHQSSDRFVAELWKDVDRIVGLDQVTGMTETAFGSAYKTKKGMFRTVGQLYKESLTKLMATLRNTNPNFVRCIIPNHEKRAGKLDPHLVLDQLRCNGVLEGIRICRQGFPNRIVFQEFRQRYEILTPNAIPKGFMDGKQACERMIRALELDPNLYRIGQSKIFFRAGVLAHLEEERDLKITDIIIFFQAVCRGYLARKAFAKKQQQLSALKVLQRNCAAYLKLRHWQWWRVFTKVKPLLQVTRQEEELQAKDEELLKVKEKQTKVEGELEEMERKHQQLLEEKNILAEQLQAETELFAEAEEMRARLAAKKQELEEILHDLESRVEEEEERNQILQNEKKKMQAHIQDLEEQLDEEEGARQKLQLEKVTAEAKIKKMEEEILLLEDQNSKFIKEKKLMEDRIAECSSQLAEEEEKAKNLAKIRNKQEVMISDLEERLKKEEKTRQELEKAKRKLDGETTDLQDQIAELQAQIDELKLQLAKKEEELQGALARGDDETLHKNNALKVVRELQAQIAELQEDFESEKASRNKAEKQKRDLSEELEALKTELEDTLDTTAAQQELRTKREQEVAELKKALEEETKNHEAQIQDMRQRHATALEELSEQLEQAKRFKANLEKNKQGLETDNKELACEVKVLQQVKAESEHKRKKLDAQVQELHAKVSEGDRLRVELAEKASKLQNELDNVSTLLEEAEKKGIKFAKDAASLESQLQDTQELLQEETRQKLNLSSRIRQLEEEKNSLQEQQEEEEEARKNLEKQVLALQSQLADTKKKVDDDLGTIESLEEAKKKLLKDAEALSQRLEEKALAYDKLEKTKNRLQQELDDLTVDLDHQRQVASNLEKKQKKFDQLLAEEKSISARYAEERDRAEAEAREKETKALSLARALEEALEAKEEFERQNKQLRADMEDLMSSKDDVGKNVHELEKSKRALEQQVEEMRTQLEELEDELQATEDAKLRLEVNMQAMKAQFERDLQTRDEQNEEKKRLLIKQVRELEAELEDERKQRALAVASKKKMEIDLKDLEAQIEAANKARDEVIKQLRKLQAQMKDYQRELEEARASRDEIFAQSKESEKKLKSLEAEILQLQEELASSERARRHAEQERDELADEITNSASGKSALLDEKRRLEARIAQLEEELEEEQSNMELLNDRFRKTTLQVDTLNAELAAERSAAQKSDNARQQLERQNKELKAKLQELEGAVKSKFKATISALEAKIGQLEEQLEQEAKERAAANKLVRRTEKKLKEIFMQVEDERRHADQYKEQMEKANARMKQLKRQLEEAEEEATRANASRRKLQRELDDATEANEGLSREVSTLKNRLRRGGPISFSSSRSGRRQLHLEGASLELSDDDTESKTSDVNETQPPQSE
5'-AMP-activated protein kinase catalytic subunit alpha-1, sequence (Q13131 whole entry): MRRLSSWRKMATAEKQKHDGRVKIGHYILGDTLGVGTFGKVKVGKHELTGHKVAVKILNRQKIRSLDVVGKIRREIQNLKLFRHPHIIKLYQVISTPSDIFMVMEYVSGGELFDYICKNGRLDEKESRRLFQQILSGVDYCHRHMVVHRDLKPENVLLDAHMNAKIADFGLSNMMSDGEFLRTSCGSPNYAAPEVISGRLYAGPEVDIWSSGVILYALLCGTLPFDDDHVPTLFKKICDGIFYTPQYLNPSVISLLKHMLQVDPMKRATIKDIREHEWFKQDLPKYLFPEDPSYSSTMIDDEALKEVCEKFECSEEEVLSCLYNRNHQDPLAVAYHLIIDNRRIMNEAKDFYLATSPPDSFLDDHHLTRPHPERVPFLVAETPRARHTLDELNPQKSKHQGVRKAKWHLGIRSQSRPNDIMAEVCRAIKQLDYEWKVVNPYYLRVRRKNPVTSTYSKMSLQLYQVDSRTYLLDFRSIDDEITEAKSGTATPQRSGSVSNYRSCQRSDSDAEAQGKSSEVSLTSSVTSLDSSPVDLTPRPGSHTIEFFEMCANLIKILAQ

In the case of `C=CC(=O)N1CCC[C@H](n2c(=O)n(-c3ccc(Oc4ccccc4)cc3)c3c(N)ncnc32)C1`, the Kd (in test [1]; in test [2]; at Myosin-10; in test [3]; in test [4]; in test [5]) was > 30 µM (inactive) each time. Moreover, the Kd in test [6] is > 30 µM (inactive).

Consider `Cc1nc2cc(-c3nn(C(C)C)c4ncnc(N)c34)ccc2o1`, for which the Kd (in test [1]; in test [2]; on Myosin-10; in test [3]; in test [4]; in test [5]) was > 30 µM (inactive) in each case. For the same molecule, in test [6], the Kd was 2.38 µM (active).

For the molecule `COCc1c(-c2ccc(NC(=O)Nc3cc(C(F)(F)F)ccc3F)c(F)c2)c2c(N)ncnn2c1CN1CCOCC1`, the Kd (in test [1]; in test [2]; at Myosin-10; in test [3]; in test [4]; in test [5]) was > 30 µM (inactive) in each case. For the same molecule, the Kd in test [6] was > 30 µM (inactive).

For `Cc1csc(-c2nnc(Nc3ccc(Oc4ncccc4-c4ccnc(N)n4)cc3)c3ccccc23)c1` [AMG-900], the Kd was > 30 µM (inactive) in test [1]; 2.79 µM (active) in test [2]; > 30 µM (inactive) on Myosin-10; > 30 µM (inactive) in test [3]; > 30 µM (inactive) in test [4]; > 30 µM (inactive) in test [5]. In addition, in test [6], the Kd is > 30 µM (inactive).

In the case of `O=C(Nc1c[nH]nc1-c1nc2cc(CN3CCOCC3)ccc2[nH]1)NC1CC1` [AT-9283], the Kd in test [1] was > 30 µM (inactive); on Myosin-10, > 30 µM (inactive); in test [3], > 30 µM (inactive); in test [4], 0.05 µM (active); in test [5], 0.927 µM (active); in test [6], > 30 µM (inactive).

Consider `COc1cc([C@@H]2c3cc4c(cc3[C@H](O)[C@H]3COC(=O)[C@@H]23)OCO4)cc(OC)c1OC` [AXL-1717], for which the Kd (in test [1]; in test [2]; at Myosin-10; in test [3]; in test [4]; in test [5]) was > 30 µM (inactive) each time. Moreover, in test [6], the Kd was > 30 µM (inactive).

With `NC(=O)Nc1cc(-c2cccc(F)c2)sc1C(=O)N[C@H]1CCCNC1` [AZD-7762], the Kd in test [1] is > 30 µM (inactive); in test [2] it was > 30 µM (inactive); on Myosin-10, > 30 µM (inactive); in test [3], > 30 µM (inactive); in test [4], 0.762 µM (active); in test [5], > 30 µM (inactive). Besides, in test [6], the Kd was > 30 µM (inactive).

Turning to `Cc1cc(C(=O)NOCCO)c(Nc2ccc(I)cc2F)n(C)c1=O` [AZD-8330], the Kd (in test [1]; in test [2]; at Myosin-10; in test [3]; in test [4]; in test [5]) was > 30 µM (inactive) throughout. Further, the Kd in test [6] is > 30 µM (inactive).

Turning to `COc1cc2ncnc(Oc3cccc(NC(=O)Nc4cc(C(C)(C)C(F)(F)F)on4)c3)c2cc1OC` [CEP-32496], the Kd (in test [1]; in test [2]; at Myosin-10; in test [3]; in test [4]; in test [5]) was > 30 µM (inactive) throughout. The same molecule yielded a dissociation constant Kd in test [6] of 0.245 µM.

With `COc1c(OCCCN2CCOCC2)ccc2c1N=C(NC(=O)c1cnc(N)nc1)N1CCN=C21` [COPANLISIB], the Kd (in test [1]; in test [2]; at Myosin-10; in test [3]; in test [4]; in test [5]) was > 30 µM (inactive) each time. The Kd in test [6] is > 30 µM (inactive).

As to `COCC(=O)NC/C=C/c1ccc2ncnc(Nc3ccc(Oc4ccc(C)nc4)c(C)c3)c2c1` [CP-724714], the Kd (in test [1]; in test [2]; at Myosin-10; in test [3]; in test [4]; in test [5]) was > 30 µM (inactive) each time. Besides, in test [6], the Kd was > 30 µM (inactive).

For `C#Cc1cccc(Nc2ncnc3cc(OC)c(OCCCCCCC(=O)NO)cc23)c1` [CUDC-101], the Kd (in test [1]; in test [2]; at Myosin-10; in test [3]; in test [4]; in test [5]) was > 30 µM (inactive) throughout. For the same molecule, the Kd in test [6] is > 30 µM (inactive).

As for `O=C(Nc1nc2cccc(-c3ccc(CN4CCS(=O)(=O)CC4)cc3)n2n1)C1CC1` [FILGOTINIB], the Kd (in test [1]; in test [2]; at Myosin-10; in test [3]; in test [4]; in test [5]) was > 30 µM (inactive) in each case. In addition, in test [6], the Kd was > 30 µM (inactive).

With `NC(=O)c1c(OCc2c(F)cc(Br)cc2F)nsc1NC(=O)NCCCCN1CCCC1` [OSI-632], the Kd (in test [1]; in test [2]; on Myosin-10; in test [3]; in test [6]) was > 30 µM (inactive) in each case.

Take `CCS(=O)(=O)c1cccc(-c2cc(C(=O)NC3CCN(C)CC3)c(C)c3[nH]c4ncc(C)cc4c23)c1` [TAK-901]: the Kd (in test [1]; in test [2]; at Myosin-10; in test [3]; in test [5]; in test [6]) was > 30 µM (inactive) each time.

The values are drawn from ChEMBL document CHEMBL3991601, “The target landscape of clinical kinase drugs” (Science, 2017).
